Among the data in ChEMBL document CHEMBL1130482, “Synthesis and activity of C2-substituted analogs of influenza neuraminidase inhibitor GS 4071” (Bioorg Med Chem Lett, 1997) are IC50 values, retold here.

This assay is described as follows: Concentration required for the inhibition of influenza neuraminidase activity by 50%. Set-up: species or system unidentified influenza virus.
For `CCC(CC)O[C@@H]1C(SC)=C(C(=O)O)C[C@H](N)[C@H]1NC(C)=O`, inhibition was half-maximal at 3400 nM (IC50).

As for `CCC(CC)O[C@@H]1C(C)=C(C(=O)O)C[C@H](N)[C@H]1NC(C)=O`, the IC50 (as a rule, the midpoint of a concentration-inhibition curve) is 2300 nM. As for `CCC(CC)O[C@@H]1C(Cl)=C(C(=O)O)C[C@H](N)[C@H]1NC(C)=O`, the figure is 3100 nM. For `CCC(CC)O[C@@H]1C=C(C(=O)O)C[C@H](N)[C@H]1NC(C)=O` [OSELTAMIVIR CARBOXYLATE] the value was 1.4 nM.
